Experimental data: patent publication US12673946B2, “Pyrimidin-4(3H)-one derivatives as TRPV4 antagonists” (RaQualia Pharma Inc., priority 2020, dated 2026)

Molecular target: T1, human TRPV4 (Homo sapiens, UniProt Q9HBA0)
T1 construct: host or cells: tetracycline-inducible Flp-In T-REx 293 cells
Experiment: Hypotonicity-induced Ca2+ influx (Fluo-4, FDSS)
Format: cell-based
Outline: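 Flp-In T-REx 293 cells with tetracycline-induced human TRPV4, loaded with Fluo-4 for 60 min at 25 °C. Compound added 5 min before hypotonic mannitol/CaCl2 solution. Ca2+ signal recorded for 4.5 min on FDSS.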

[1] = Flp-In T-REx 293 cells expressing human TRPV4, examples listed under heading 'Human IC50<50 nM'
[2] = Flp-In T-REx 293 cells stably expressing human TRPV4, compounds listed by potency bin (<10 nM Tables 96-1/96-2, <3 nM Table 97)

T1 sequence (Q9HBA0 whole entry): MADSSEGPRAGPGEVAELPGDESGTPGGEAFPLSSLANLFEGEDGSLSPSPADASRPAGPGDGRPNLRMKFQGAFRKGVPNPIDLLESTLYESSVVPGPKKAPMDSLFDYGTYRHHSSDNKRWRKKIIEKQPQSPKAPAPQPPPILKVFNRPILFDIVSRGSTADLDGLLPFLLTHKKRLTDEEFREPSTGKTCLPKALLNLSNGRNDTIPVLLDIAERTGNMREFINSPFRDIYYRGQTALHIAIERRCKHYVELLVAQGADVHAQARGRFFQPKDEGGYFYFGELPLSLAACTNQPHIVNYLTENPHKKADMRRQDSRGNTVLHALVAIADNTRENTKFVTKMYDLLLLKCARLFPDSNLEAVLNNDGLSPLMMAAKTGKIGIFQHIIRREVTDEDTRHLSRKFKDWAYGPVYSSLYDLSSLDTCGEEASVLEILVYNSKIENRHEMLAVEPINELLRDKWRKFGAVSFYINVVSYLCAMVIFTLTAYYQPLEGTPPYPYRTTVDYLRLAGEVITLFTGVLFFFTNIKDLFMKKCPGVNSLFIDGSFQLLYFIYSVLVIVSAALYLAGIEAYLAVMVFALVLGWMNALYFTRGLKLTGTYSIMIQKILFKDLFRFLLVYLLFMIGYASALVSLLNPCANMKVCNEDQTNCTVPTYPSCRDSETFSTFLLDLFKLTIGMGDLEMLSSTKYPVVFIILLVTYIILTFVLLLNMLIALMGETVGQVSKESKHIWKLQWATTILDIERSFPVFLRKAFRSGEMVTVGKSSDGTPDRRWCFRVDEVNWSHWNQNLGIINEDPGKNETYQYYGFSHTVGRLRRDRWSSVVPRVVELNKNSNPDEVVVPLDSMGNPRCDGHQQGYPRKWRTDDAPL

IC50 [1]	IC50 [2]	Structure (SMILES)
< 50 nM	< 10 nM	O=C([C@H](O)c1cccc(C(F)(F)F)c1)N1CCCc2nc(C3(c4cccc(-c5ccc6ncsc6c5)c4)CC3)[nH]c(=O)c2C1 [17-94]
< 50 nM	< 10 nM	O=C([C@H](O)c1cccc(C(F)(F)F)c1)N1CCCc2nc(C3(c4cccc(C5=CCN(S(=O)(=O)C6CCCCC6)CC5)c4)CC3)[nH]c(=O)c2C1 [42-76]
< 50 nM	–	Cc1ccc(F)cc1-c1cccc(C(O)C(=O)N2CCc3nc(C4(c5ccccc5)CC4)[nH]c(=O)c3C2)c1 (centres unmarked) [44-39]
< 50 nM	< 10 nM	O=C(C(O)c1cccc(-c2cccc(C(F)(F)F)c2)c1)N1CCCc2c(nc(C3(c4ccccc4)CC3)[nH]c2=O)C1 (centres unmarked) [17-74]
< 50 nM	< 10 nM	N#Cc1ccc(-c2cccc(CC(=O)N3CCCc4nc(C5(c6cccc(Cl)c6)CC5)[nH]c(=O)c4C3)c2)cc1 [17-126]
< 50 nM	–	CC(C)c1cccc(C(O)C(=O)N2CCc3nc(C4(c5cccc(F)c5)CC4)[nH]c(=O)c3C2)c1 (centres unmarked) [14-32]
< 50 nM	< 10 nM	O=C(C(O)c1cccc(C2CC2)c1)N1CCCc2nc(C3(c4cccc(Cl)c4)CC3)[nH]c(=O)c2C1 (centres unmarked) [17-24]
< 50 nM	< 10 nM	O=C(Cc1cccc(S(F)(F)(F)(F)F)c1)N1CCCc2nc(C3(c4cccc(Cl)c4)CC3)[nH]c(=O)c2C1 [17-114]
< 50 nM	< 3 nM	O=C([C@H](O)c1cccc(-c2cc(C(F)(F)F)ccc2Cl)c1)N1CCCc2nc(C3(c4ccccc4)CC3)[nH]c(=O)c2C1 [49-52]
< 50 nM	< 3 nM	O=C([C@H](O)c1cccc(C(F)(F)F)c1)N1CCCc2nc(C3(c4cc(-c5ccccc5)cs4)CC3)[nH]c(=O)c2C1 [41-1]
< 50 nM	< 10 nM	O=C([C@H](O)c1cccc(C(F)(F)F)c1)N1CCCc2nc(C3(c4cccc(C5=CCN(CC(F)(F)F)CC5)c4)CC3)[nH]c(=O)c2C1 [42-81]
< 50 nM	–	CC(C)c1cccc(C2(c3nc4c(c(=O)[nH]3)CN(C(=O)C(F)(F)c3cccc(Cl)c3)CC4)CC2)c1 [20-14]
< 50 nM	< 3 nM	O=C([C@H](O)c1cccc(-c2cccc(C(F)(F)F)n2)c1)N1CCc2nc(C3(c4cccc(Cl)c4)CC3)[nH]c(=O)c2C1 [45-6]
< 50 nM	< 10 nM	O=C([C@H](O)c1cccc(-c2cc(Cl)cc(OC(F)(F)F)c2)c1)N1CCCc2nc(C3(c4cccc(Cl)c4)CC3)[nH]c(=O)c2C1 [50-16]
< 50 nM	–	O=C(C(O)c1cccc(C2CC2)c1)N1CCCc2nc(C3(c4cccs4)CC3)[nH]c(=O)c2C1 (centres unmarked) [18-13]
< 50 nM	< 10 nM	CC(C)c1cncc(C2(c3nc4c(c(=O)[nH]3)CN(C(=O)[C@H](O)c3cccc(-c5ccc(F)cc5)c3)CC4)CC2)c1 [47-3]
< 50 nM	< 10 nM	O=C(C(O)c1cncc(-c2cccc(Cl)c2)c1)N1CCc2nc(C3(c4ccccc4)CC3)[nH]c(=O)c2C1 (centres unmarked) [48-5]
< 50 nM	< 10 nM	O=C([C@H](O)c1cccc(C(F)(F)F)c1)N1CCCc2nc(C3(c4cccc(-c5ccncc5)c4)CC3)[nH]c(=O)c2C1 [42-17]
< 50 nM	–	O=C(C(O)c1cccc(-c2ccc(C(F)(F)F)nc2)c1)N1CCc2nc(C3(c4ccccc4)CC3)[nH]c(=O)c2C1 (centres unmarked) [44-41]
< 50 nM	< 10 nM	N#Cc1cc(F)cc(-c2cccc(C3(c4nc5c(c(=O)[nH]4)CN(C(=O)[C@H](O)c4cccc(C(F)(F)F)c4)CCC5)CC3)c2)c1 [42-69]
< 50 nM	< 3 nM	O=C([C@H](O)c1cccc(C(F)(F)F)c1)N1CCCc2nc(C3(c4cccc(-c5cnc(-c6ccccc6)s5)c4)CC3)[nH]c(=O)c2C1 [17-98]
< 50 nM	< 10 nM	O=C([C@H](O)c1cccc(C(F)(F)F)c1)N1CCCc2nc(C3(c4cccc(-c5cncs5)c4)CC3)[nH]c(=O)c2C1 [42-25]
< 50 nM	< 10 nM	O=C(C(O)c1cccc(-c2cccc(C(F)(F)F)c2)c1)N1CCc2nc(C3(c4ccccc4)CC3)[nH]c(=O)c2C1 (centres unmarked) [44-6]
